Results from ChEMBL document CHEMBL5537161, “Structure-Guided Design, Synthesis, and Antivirulence Assessment of Covalent Staphylococcus aureus Sortase A Inhibitors” (J Med Chem, 2024).
Active and inactive are the calls of the source. The rule behind the calls is not given here.

Assays:
Staphylococcus aureus [1] = assay: Antivirulence activity against Staphylococcus aureus Newman assessed as reduction in abundance of Sbi at 6.25 to 100 uM by Western blotting analysis; type: functional, organism-based; details: dose 6.25-100 µM
[2] = Covalent inhibition of Streptococcus pyogenes Sortase A N81 deletion mutant assessed as inactivation constant incubated for 60 mins
[3] = Inhibition of Streptococcus pyogenes Sortase A N81 deletion mutant transpeptidation using IsdA64-323 as substrate preincubated for 20 mins followed by substrate addition and measured after 1.5 hrs by SDS-PAGE analysis
Staphylococcus aureus [4] = assay: Antibacterial activity against Staphylococcus aureus Newman infected in Galleria mellonella assessed as increase in larvae survival at 30 mg/kg measured every 24 hrs for 5 days; type: functional; details: time 5 day
[5] = Toxicity in Galleria mellonella larvae assessed as effect on survival at 60 mg/kg measured after 120 hrs; type: organism-based; details: in vivo
Staphylococcus aureus [6] = assay: Antibacterial activity against Staphylococcus aureus USA300 infected in Galleria mellonella assessed as reduction in melanization at 200 uM pretreated with compound followed by larvae infection measured after 24 hrs; type: functional, organism-based
Streptococcus pyogenes [7] = assay: Inhibition of Streptococcus pyogenes Sortase A N81 deletion mutant transpeptidation assessed as thermal stabilization by measuring change in melting temperature at 80 uM incubated for 15 mins by Nano-DSF assay
[8] = system: Sortase A (Staphylococcus aureus), Q9S446 [UNDEFINED MUTATION]; assay: Inhibition of Staphylococcus aureus Sortase A N24 deletion mutant transpeptidation assessed as thermal stabilization by measuring change in melting temperature at 80 uM incubated for 15 mins by Nano-DSF assay
Streptococcus pyogenes [9] = assay: Covalent inhibition of Streptococcus pyogenes Sortase A N81 deletion mutant assessed as inactivation rate constant incubated for 60 mins
Sortase A [10] = biological target: T1, Sortase A (Staphylococcus aureus, UniProt Q9S446, N24DEL); assay: Inhibition of Staphylococcus aureus Sortase A N24 deletion mutant transpeptidation using IsdA64-323 as substrate preincubated for 20 mins followed by substrate addition and measured after 1.5 hrs by SDS-PAGE analysis
Staphylococcus aureus [11] = assay: Antibacterial activity against Staphylococcus aureus Newman assessed as reduction in bacterial growth at 100 uM incubated for 14 hrs by microplate reader assay; type: functional, organism-based
Staphylococcus aureus [12] = assay: Bactericidal activity against Staphylococcus aureus Newman assessed as reduction in bacterial growth incubated for 16 to 18 hrs; type: functional; details: time 16-18 hrs
Cathepsin B [13] = biological target: T2, Cathepsin B (Homo sapiens, UniProt P07858); assay: Inhibition of cathepsin B (unknown origin) using Cbz-Phe-Arg-AMC as substrate preincubated for 5 mins followed by substrate addition by fluorescence based assay
Cathepsin B [14] = biological target: T2, Cathepsin B; assay: Inhibition of cathepsin B (unknown origin) at 2 uM using Cbz-Phe-Arg-AMC as substrate preincubated for 5 mins followed by substrate addition by fluorescence based assay
[15] = system: Sortase A (Staphylococcus aureus), Q9S446 [UNDEFINED MUTATION]; assay: Covalent inhibition of Staphylococcus aureus sortase A N24 deletion mutant assessed as ratio of Kinact to Ki incubated for 60 mins
[16] = system: Sortase A (Staphylococcus aureus), Q9S446 [UNDEFINED MUTATION]; assay: Irreversible inhibition of Staphylococcus aureus sortase A N24 deletion mutant preincubated with compound for 1 to 60 mins followed by substrate addition by FRET based assay; details: time 1-60 min, TDE = time-dependent effect
Staphylococcus aureus [17] = assay: Antibacterial activity against Staphylococcus aureus USA300 assessed as reduction in bacterial growth at 100 uM incubated for 14 hrs by microplate reader assay; type: functional, organism-based
Staphylococcus aureus [18] = assay: Antibacterial activity against Staphylococcus aureus Newman infected in Galleria mellonella assessed as reduction in melanization at 200 uM pretreated with compound followed by larvae infection measured after 24 hrs; type: functional, organism-based
Procathepsin L [19] = biological target: T3, Procathepsin L (Homo sapiens, UniProt P07711); assay: Inhibition of cathepsin L (unknown origin) at 2 uM using Cbz-Phe-Arg-AMC as substrate preincubated for 5 mins followed by substrate addition by fluorescence based assay
Target sequence in this assay (P07711 114-333 limits assumed): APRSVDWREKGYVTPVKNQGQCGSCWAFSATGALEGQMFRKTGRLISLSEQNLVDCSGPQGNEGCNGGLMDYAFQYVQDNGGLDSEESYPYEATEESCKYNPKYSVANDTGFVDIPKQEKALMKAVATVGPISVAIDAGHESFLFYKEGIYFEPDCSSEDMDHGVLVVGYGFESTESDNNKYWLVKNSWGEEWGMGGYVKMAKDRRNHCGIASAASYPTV

Staphylococcus aureus [20] = assay: Antivirulence activity against Staphylococcus aureus Newman assessed as reduction in abundance of anchored SpA in bacterial envelope by Western blotting analysis; type: functional, organism-based; details: dose 6.25-100 µM
Procathepsin L [21] = biological target: T3, Procathepsin L; assay: Inhibition of cathepsin L (unknown origin) using Cbz-Phe-Arg-AMC as substrate preincubated for 5 mins followed by substrate addition by fluorescence based assay
Target sequence in this assay (P07711 whole entry): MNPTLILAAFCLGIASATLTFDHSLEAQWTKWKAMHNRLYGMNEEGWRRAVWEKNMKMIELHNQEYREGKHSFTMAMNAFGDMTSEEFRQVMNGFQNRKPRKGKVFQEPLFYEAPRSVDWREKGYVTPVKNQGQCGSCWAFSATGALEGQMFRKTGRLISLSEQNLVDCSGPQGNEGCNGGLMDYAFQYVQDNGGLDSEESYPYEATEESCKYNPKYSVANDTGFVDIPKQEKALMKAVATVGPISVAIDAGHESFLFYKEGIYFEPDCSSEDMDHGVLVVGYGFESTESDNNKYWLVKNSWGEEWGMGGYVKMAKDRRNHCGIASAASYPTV

Staphylococcus aureus [22] = assay: Antibacterial activity against Staphylococcus aureus USA300 infected in Galleria mellonella assessed as increase in larvae survival at 30 mg/kg measured every 24 hrs for 5 days; type: functional; details: time 5 day
Streptococcus pyogenes [23] = assay: Covalent inhibition of Streptococcus pyogenes Sortase A N81 deletion mutant assessed as ratio of Kinact to Ki incubated for 60 mins
Staphylococcus aureus [24] = assay: Inhibition of Staphylococcus aureus Newman biofilm formation incubated for 14 hrs by Crystal violet staining based assay; type: functional, organism-based; details: dose 12.5-100 µM
Streptococcus pyogenes [25] = assay: Irreversible inhibition of Streptococcus pyogenes Sortase A N81 deletion mutant preincubated with compound for 1 to 60 mins followed by substrate addition by FRET based assay; details: time 1-60 min, TDE = time-dependent effect
[26] = Toxicity in Galleria mellonella larvae assessed as change in appearance at 60 mg/kg measured after 120 hrs; type: organism-based; details: in vivo
Staphylococcus aureus [27] = assay: Inhibition of Staphylococcus aureus USA300 biofilm formation incubated for 14 hrs by Crystal violet staining based assay; type: functional, organism-based; details: dose 12.5-100 µM
[28] = Toxicity in Galleria mellonella assessed as change in color at 60 mg/kg measured after 120 hrs; type: organism-based; details: in vivo
Sortase A [29] = biological target: T1, Sortase A; assay: Inhibition of Staphylococcus aureus sortase A N24 deletion mutant using Abz-LPATG-Dnp as substrate preincubated for 20 mins followed by substrate addition by FRET assay
Sortase A [30] = biological target: T1, Sortase A; assay: Covalent inhibition of Staphylococcus aureus sortase A N24 deletion mutant assessed as inactivation constant incubated for 60 mins
[31] = system: Sortase A (Staphylococcus aureus), Q9S446 [UNDEFINED MUTATION]; assay: Covalent inhibition of Staphylococcus aureus sortase A N24 deletion mutant assessed as inactivation rate constant incubated for 60 mins

With `O=C1NC(=O)C(=C/C=C/c2ccc(OCc3ccc(F)cc3)cc2)C(=O)N1` the Activity (Staphylococcus aureus [1]) was “Active”, the Ki [2] was 5400 nM and the IC50 [3] was 4900 nM. For the same molecule, the Activity (Staphylococcus aureus [4]) was 60%, the Activity [5] was “Non-Toxic” and the Activity (Staphylococcus aureus [6]) was “Active”. It also gave a ΔTm (Streptococcus pyogenes [7]) of 9.3 °C, a ΔTm [8] of 4.5 °C and a Kinact (Streptococcus pyogenes [9]) of 1170 min⁻¹. The IC50 (Sortase A [10]) was 5200 nM, the Activity (Staphylococcus aureus [11]) was “inactive” and the MIC (Staphylococcus aureus [12]) was greater than 128 µg/mL. For the same molecule, the IC50 (Cathepsin B [13]) was 36.1 nM, the inhibition (Cathepsin B [14]) was “Active” and the Ratio [15] was 216 µM⁻¹ min⁻¹. The inhibition [16] was “Tde”, the Activity (Staphylococcus aureus [17]) was “inactive” and the Activity (Staphylococcus aureus [18]) was “Active”. The inhibition (Procathepsin L [19]) was “Active”, the Activity (Staphylococcus aureus [20]) was “Active” and the IC50 (Procathepsin L [21]) was 39.7 nM. For the same molecule, the Activity (Staphylococcus aureus [22]) was 40%, the Ratio (Streptococcus pyogenes [23]) was 81.1 µM⁻¹ min⁻¹ and the inhibition (Staphylococcus aureus [24]) was “Dose-Dependent Effect”. For the same molecule, the inhibition (Streptococcus pyogenes [25]) was “Tde”, the Activity [26] was “Non-Toxic” and the inhibition (Staphylococcus aureus [27]) was “Dose-Dependent Effect”. The Activity [28] was “Non-Toxic”, the IC50 (Sortase A [29]) was 600 nM and the Ki (Sortase A [30]) was 1600 nM. For the same molecule, the Kinact [31] was 130 min⁻¹.
